# Patent US6277882A, “Utilization of alkyl hydrogen fumarates for treating psoriasis, psoriatic arthritis, neurodermatitis and regional enteritis” (priority 1998, dated 2001)
# Counter-ions that a name gives are not always drawn.
# Experiments:
# psoriasis = conditions: cited from earlier work
# microbes = conditions: cited from earlier work
# [1] = tested on: toxic effects of Mitomycin C and Aflatoxin; conditions: cited from earlier work
# phosphoslipase A2 = conditions: cited from earlier work
# Ehrlich ascites tumour = conditions: mice; cited from earlier work
# [2] = Pharmaceutical equivalency: comparison of pharmacokinetic data (methyl hydrogen fumarate level); conditions: rat, in vivo, 100 mg/kg, dosage 100 mg/kg body-wt.
# [3] = high dosages; parenteral, dermal and particularly oral route; cited from earlier work
# in vivo = conditions: rat, oral administration; for LD50: in vivo, po
# Procedure: Before the clinical trial, the acute toxicity of methyl hydrogen fumarate was tested by oral administration to rats.
# Acute toxicity on rats (oral administration)
compound,measurement,setting,value
O=C(O)/C=C/C(=O)O [fumaric acid],anti-psoriatic effect,psoriasis,anti-psoriatic
same,antimicrobial effect,microbes,antimicrobial effect
same,toxic effects of Mitomycin C and Aflatoxin,[1],reduces the toxic effects of Mitomycin C and Aflatoxin
same,stimulation of phosphoslipase A2,phosphoslipase A2,stimulated
same,growth of the Ehrlich ascites tumour,Ehrlich ascites tumour,inhibits the growth of the Ehrlich ascites tumour in mice
COC(=O)/C=C/C(=O)O.[Ca] [Methyl hydrogen fumarate calcium salt],Cmax,[2]; female,107 µg/mL
same,Cmax,[2]; male,51.3 µg/mL
O=C(O)/C(O)=C(\O)C(=O)O [dihydroxy fumaric acid],rate of side effects and toxicity,[3],unacceptable rate of side effects and high toxicity
N#C/C=C/C#N [fumaronitrile],rate of side effects and toxicity,[3],unacceptable rate of side effects and high toxicity
NC(=O)/C=C/C(N)=O [fumaramide],rate of side effects and toxicity,[3],unacceptable rate of side effects and high toxicity
"COC(=O)/C=C/C(=O)O [Methyl hydrogen fumarate, methyl hydrogen fumarate]",LD50,in vivo; female,1780 mg/kg
same,LD50,in vivo; male,2610 mg/kg
same,Lowest lethal dose in mg/kg,in vivo; female,"1,470.0 mg/kg"
same,Lowest lethal dose in mg/kg,in vivo; male,"2,150.0 mg/kg"
same,Cmax,[2]; female,84.8 µg/mL
same,Cmax,[2]; male,69.9 µg/mL
